Results as given in patent US20080249168A1, “Pharmaceutical composition for gout” (priority 2007, published 2008).
Entries after “also recorded” stand apart in the source; their conditions may differ.

Assays:
[1] = system: hyperuricemia model of Kunmin mouse; assay: Influence of l-carnitine on serum uric acid in hyperuricemia model of Kunmin mouse (oteracil potassium as inducer); format: in vivo; settings: for serum uric acid value (X ± S): peritoneal injection, blood one hour after injection of inducer, P < 0.01 vs negative control
Procedure: (§1) Fifty healthy kunmin Mouse (weight of 18-22 grams, male) were randomly divided into 5 groups, which are positive control group, negative control group, and small (250 mg/kg), medium (500 mg/kg) and large (1000 mg/kg) doses of 1-carnitine groups. The solvent for all solutions is 0.5% of sodium carboxymethyl cellulose (CMC—Na), with peritoneal injection in dose of 0.1 ml/10 g for all animals. For […], same dose of 0.5% of CMC—Na solution was injected. One hour after injection of inducer, blood samples were taken from eyeball, stet at room temperature for about one hour, centrifugation at 4000 r.p.m for 10 mins, supernatant was transferred to fresh tube for biochemical test of serum uric acid.
The efficacy of the composition described in the present invention is clearly shown in Example 1, where uricase inhibitor oteracil potassium is used as model inducer to induce hyperuricemia in Kunmin mouse, and administered Levocarnitine to observe novel pharmacological effect on the model.

normal kunmin mice = assay: Influence of L-carnitine on serum uric acid level in normal Kunmin mouse; format: in vivo; settings: 300 mg/kg
Procedure: as §1, with “acid. Thirty healthy kunmin mouse (weight of 18-22 grams, male) were randomly divided into 3 groups, which are positive control group, negative control group, and 1-carnitine (300 mg/k) group. Others method was same as example 1.” for “acid.”

SMILES: C[N+](C)(C)C[C@H](O)CC(=O)[O-] [L-Carnitine, Levocarnitine (L-carnitine)]
- serum uric acid value (X ± S) ([1]; 250 mg/kg (small dose)): 140.6 ± 51.55
- serum uric acid value (X ± S) ([1]; 500 mg/kg (medium dose)): 130.1 ± 34.8
- serum uric acid value (X ± S) ([1]; 1000 mg/kg (large dose)): 131.7 ± 24.79
- effect on serum uric acid level (in words) ([1]; dose 250-1000 mg/kg): reduced serum uric acid level of model animal group significantly; also recorded: reduced the uric acid level significantly
- effect on uric acid level (in words) (normal kunmin mice): no effect on uric acid level
- serum uric acid value (X ± S) (normal kunmin mice; P > 0.05 vs normal positive control group): 76.9 ± 30.77
- effect on uric acid level (in words) (normal kunmin mice; listed as 1-carnitine): not affecting uric acid level
